In patent USRE29828E, “1-Substituted-3-amidopyrrolidines” (A. H. Robins Company, Inc., priority 1976, dated 1978) one finds ED50 data, which are given here for 20 molecules.

Counter-ions that a name gives are not always drawn. Like-named read-outs stand apart in the source and are kept apart here.

Experiment [1] concerns depressant action of tetrabenazine in mice. Description: anti-depressant effect: antagonism of the depressant action of tetrabenazine in mice. In kind it is in vivo. The following applies: Mus musculus, read-out: ED50 (dose effective in 50 percent of the treated mice), anti-depressant effect.
Description: The anti-depressant effect of some compounds of this invention was assessed by their ability to antagonize the depressant action of tetrabenazine (2-oxo-3-isobutyl-9,10-dimethoxy- 1,2,3,4,6,7 -hexahydro-11bH-benzo[a]quinolizine) in mice [Englehardt et al. J. Med. Chem. 11 (2), 325 (1968)].
Experiment [2] relates to mice. Description: animal or person. In kind it is in vivo. The following applies: Mus musculus, read-out: ED50 (dose effective in 50 percent of the treated mice), analgetic effect.

In general, ED50 refers to the dose at which the effect has come halfway, by size or by number of responders. For `O=C(c1ccccc1)N(c1ccccc1)C1CCN(Cc2ccccc2)C1` (stereo not drawn) [Example 41], the 50% effective dose (ED50) in experiment [1] was 4.9 mg/kg.

For the molecule `CN1CCC(N(C(=O)COc2ccc(Cl)cc2)c2ccccc2)C1` (stereo not drawn) [Example 31], in experiment [2], the 50% effective dose (ED50) came out at 16.5 mg/kg.

In the case of `CN(C)CCC=C1c2ccccc2CCc2ccccc21` [Elavil®, reference compound], the ED50 in experiment [1] (mice, antagonism of depressant action of tetrabenazine) was determined as 1.1 mg/kg.

Regarding `CCC(=O)N(c1ccccc1OC)C1CCN(CCOc2ccccc2)C1` (stereo not drawn) [Example 4, 1-(2-phenoxethyl)-3-[N-(2-methoxyphenyl)propionamido]pyrrolidine], the ED50 in experiment [2] is 6.8 mg/kg.

As to `CCC(=O)O[C@](Cc1ccccc1)(c1ccccc1)[C@H](C)CN(C)C` [Darvon®, reference compound], in experiment [2], the ED50 turned out to be 11.2 mg/kg.

For the molecule `CN1CCC(N(C(=O)c2ccc(F)cc2)c2ccccc2)C1` (stereo not drawn) [Example 38], the ED50 in experiment [1] was 4.8 mg/kg.

Consider `CCC(=O)N(c1ccccc1)C1CCN(CCOc2ccccc2)C1` (stereo not drawn) [Example 17, 1-(2-phenoxyethyl)-3-(N-phenylpropionamido)pyrrolidine hydrochloride], for which the ED50 in experiment [2] was 14.2 mg/kg.

Consider `CN1CCC(N(C(=O)c2cccc(C(F)(F)F)c2)c2ccccc2)C1` (stereo not drawn) [Example 36], for which the ED50 in experiment [1] is 2.8 mg/kg.

As for `O=C(c1ccccc1)N(c1ccccc1)C1CCNC1` (stereo not drawn) [Example 42], in experiment [1], the ED50 came to 2.4 mg/kg.

As for `CCN1CCC(N(C(=O)c2ccc(Cl)cc2)c2ccccc2)C1` (stereo not drawn) [Example 48], the ED50 in experiment [1] was 0.6 mg/kg.

Regarding `CN(C)CCCN1c2ccccc2CCc2ccccc21` [Tofranil®, reference compound], the ED50 in experiment [1] was found to be 1.3 mg/kg.

For the molecule `CN1CCC(N(C(=O)c2ccc(Cl)cc2)c2ccccc2)C1` (stereo not drawn) [Example 15, 1-methyl-3-[N-phenyl-(4-chlorobenzamido)]pyrrolidine fumarate], the results for the ED50 in experiment [2] and in experiment [1] were 5.2 mg/kg and 0.6 mg/kg, respectively.

Regarding `CN1CCC(N(C(=O)c2ccccc2)c2ccccc2)C1` (stereo not drawn) [Example 29], the 50% effective dose (ED50) in experiment [1] was 1.7 mg/kg.

As for `CCOC(=O)C1(c2ccccc2)CCN(C)CC1` [Demerol®, reference compound], the ED50 in experiment [2] was 6.4 mg/kg.

For `CN1CCC(N(C(=O)c2ccc(Br)cc2)c2ccccc2)C1` (stereo not drawn) [Example 40], the ED50 in experiment [1] was 15.5 mg/kg.

Turning to `CCN1CCC(N(C(=O)c2ccc(Cl)cc2)c2ccc(Cl)cc2)C1` (stereo not drawn) [Example 47], the ED50 in experiment [1] is 4.9 mg/kg.

Regarding `C=CCN1CCC(N(C(=O)CC)c2ccccc2)C1` (stereo not drawn) [Example 5], in experiment [2], the ED50 worked out at 8 mg/kg.

On to `CCN1CCC(N(C(=O)c2ccccc2)c2cccc(C(F)(F)F)c2)C1` (stereo not drawn) [Example 44], for which the ED50 in experiment [1] stood at 2 mg/kg.

For the molecule `CCC(=O)N(c1ccccc1)C1CCN(CCOc2ccccc2OC)C1` (stereo not drawn) [Example 18, 1-[2-(2-methoxyphenoxy)ethyl]-3-(N-phenylpropionamido)-pyrrolidine], the ED50 in experiment [2] was 3.4 mg/kg.

Regarding `CN1CCC(N(C(=O)c2cccc(Cl)c2)c2ccccc2)C1` (stereo not drawn) [Example 37], the ED50 in experiment [1] amounted to 2.8 mg/kg.
